Values joined by “and” are separate entries in the source; they are usually repeats but may differ in a detail not shown here. Equal values may be shown once. “Also recorded” adds a separate entry of the source.
Legend:
[1] = target: T1, SOCS2 (Homo sapiens, UniProt O14508); assay: SOCS2 pulldown with biotinylated GHR_pY595 peptide from K562 cells pre-treated with compound; format: cell-based; conditions: K562 cells pre-treated with 10 µM for 6 h
T1 construct: endogenous SOCS2 from K562 lysates; endogenous in cells; host or cells: K562
T1 sequence (O14508 1-198): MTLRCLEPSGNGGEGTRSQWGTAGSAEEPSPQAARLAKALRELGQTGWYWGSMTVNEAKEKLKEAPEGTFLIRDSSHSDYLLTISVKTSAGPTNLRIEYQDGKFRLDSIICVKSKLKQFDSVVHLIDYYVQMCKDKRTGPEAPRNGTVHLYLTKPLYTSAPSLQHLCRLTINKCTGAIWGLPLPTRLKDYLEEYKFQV
Description: Pulldown of cellular SOCS2 was abrogated when K562 cells were pre-treated for 6 h with MN714 prior to cell lysis, further evidencing the inhibitor cell permeability and specific target engagement (Fig. 6c).
K562 cells were treated with either DMSO or 10 µM MN714 for 6 h before being lysed. For experiments with MN551, DMSO-treated lysate was used. DMSO-treated K562 lysate (1 mg/ml) was pre-cleared using control agarose beads (Pierce Control Agarose Resin, 26150) which were washed thrice using 50 mM Tris pH 7.4, 150 mM NaCl buffer. […] Unbound peptide was washed off through 3× cycles of buffer wash and spin. Beads were resuspended to a total volume of 100 µl per IP sample. 100 µl beads with immobilized peptides was added to the MN551 lysate tubes. Samples were incubated for 40 min at room temperature. Samples were spun and unbound supernatant was removed. Beads were washed 3× with 0.05% NP40, 50 mM Tris pH 7.4, 150 mM NaCl buffer before being resuspended in 35 µl 1× LDS. Samples were heated for 10 min at 95 °C after which the elute was transferred to a fresh tube. 20 µl of each sample was analyzed by Western Blot (4-12% Bis-Tris gel 180 V, 60 mins) before blotting for SOCS2 (ab109245, 1:1000 dilution) overnight at 4 °C. Uncropped blot images collected with ChemiDoc Touch imaging system (BioRad) operated by Image Lab (v2.4.0.03) and antibody validation provided in Source Data. […]

[2] = target: T2, SOCS2 (SBC2) (Homo sapiens, UniProt O14508); assay: Intact ESI-MS of recombinant protein, covalent modification; format: biochemical
T2 construct: SOCS2 (amino acids 32–198); His6 (N, cleaved yes); made in house; host or cells: E. coli BL21(DE3)
Description: (§1) SBC2 protein (40 µM), SBC2 C111S, SBC4, SBC6, or CISH were incubated with an equimolar concentration of MN551 in 50 mM Tris, pH 8.0, 50 mM NaCl, 1 mM TCEP. At defined time points 20 µl samples were removed and the protein precipitated by the addition of 80 µl methanol. The precipitated protein was pelleted by centrifugation, washed with 500 µl methanol, and resuspended in an aqueous solution of 15% acetonitrile and 1% TFA. Samples were separated by HPLC on a C3 column using a 10–75% gradient of acetonitrile and analyzed using an Agilent 6130 quadrupole MS. Spectra were deconvoluted and integrated using Agilent LC/MSD ChemStation.

[3] = target: T3, SOCS6-EloBC (SBC6) (Homo sapiens, UniProt O14544); assay: as above; format: biochemical; conditions: SOCS6 + MN551 (1:1, 40 µM)
T3 construct: SOCS6 (amino acids 353-535); His6-GST (N, cleaved yes); made in house; E. coli implied
Description: (§2) Having established the specificity of MN551 for covalent modification of Cys111 of SOCS2, we turned our attention to the intra-SOCS family selectivity of MN551. We performed a multiple sequence alignment of the SH2 domains from all the SOCS proteins (Fig. 3a). The Cys111 targeted by MN551 for covalency is part of the EF loop in SOCS2. Beyond SOCS2, other family members SOCS4, SOCS5, SOCS7, and CISH also have a cysteine in the same loop (Fig. 3a), and given the expected conserved ligand binding mode, they could all be engaged by MN551. To verify our hypothesis, we incubated recombinant SOCS/EloBC complexes of SOCS4 (SBC4), SOCS6 (SBC6), and CISH with MN551 for 2 h and analyzed for covalent modification of the SOCS proteins by intact ESI-MS (Fig. 3b–d). These proteins were chosen as SOCS4 and SOCS6 are already structurally well characterized, and because SOCS4 Cys350, and CISH Cys144 are in a similar position as Cys111 in SOCS2, whereas SOCS6 is lacking cysteines in the EF loop[36]–[38]. […] Although SOCS6 lacks a cysteine in its EF loop, Cys471 from the BG loop is predicted to be in close proximity to the chloroacetamide functional group of MN551, as evident from the superposed SOCS2 and SOCS6 structures, potentially explaining the modification, albeit minimal (Fig. 3f). Structure-guided improvements upon this observed MN551-SOCS6 covalency could expedite future attempts in development of covalent binders for SOCS6. In the absence of a PDB structure for CISH, we overlayed SOCS2-SH2 domain with an AlphaFold model generated for the CISH SH2 domain with deletions in the N-terminus and the PEST sequence (66-258, Δ174-202, Fig. 3g). Amongst all the SOCSs, CISH has the highest sequence identity to SOCS2-SH2 and the presence of a conserved Cys144 in the EF loop together likely explain its complete covalent modification by MN551.
as §1

[4] = target: T4, SOCS4-EloBC (SBC4) (Homo sapiens, UniProt Q8WXH5); assay: as above; format: biochemical; conditions: SOCS4 + MN551 (1:1, 40 µM), 0 min
T4 construct: SOCS4 (amino acids 274-437); made in house; E. coli implied
Description: as §2, §1

[5] = target: T5, CISH-EloBC (Homo sapiens, UniProt Q9NSE2, DEL174-202); assay: as above; format: biochemical; conditions: CISH + MN551 (1:1, 40 µM), 0 min
T5 construct: CISH (66-258 Δ174-202) was codon-optimized for bacterial expression; GST (from pGEX-6P-1); made in house; host or cells: E. coli BL21(DE3)
Description: as §2, §1

Row | SMILES | pulldown of cellular SOCS2 with GHR pY595 peptide [1] | covalent adduct observed by intact mass analysis ([2]; SBC2 (40 µM) treated with MN551 (40 µM)) | time to stoichiometric occupancy at Cys111 ([2]; recombinant SOCS2, equimolar compound) | % double-modified ([3]; 0 min) | % modified (single adduct) ([3]; 0 min) | % double-modified ([3]; 120 min) | % modified (single adduct) ([3]; 120 min) | % modified [4] | % modified [5]
1 | CC(C)(C)C(=O)OCOP(=O)(OCOC(=O)C(C)(C)C)Oc1ccc(C[C@H](NC(=O)Cc2ccc(F)cc2)C(=O)NCc2cccc(NC(=O)CCl)c2)cc1 [MN714] | abrogated; also recorded: effective blockade of SOCS2-GHRpY interaction |  |  |  |  |  |  |  | 
2 | O=C(CCl)Nc1cccc(CNC(=O)[C@H](Cc2ccc(OP(=O)(O)O)cc2)NC(=O)Cc2ccc(F)cc2)c1 [MN551] |  | 1:1 covalent SOCS2:MN551 adduct and single covalent adduct | ≤ 2 h | 0.0% | 0.0% | 2.6% | 18% and 18.3% | 0.0% | 0.0%

From paper PMC10564737, “Structure-based design of a phosphotyrosine-masked covalent ligand targeting the E3 ligase SOCS2” (Nature Communications, 2023)
